BindingDB's records for doi:10.1016/s0960-894x(03)00020-9 (Seoul National University, 2003)

Legend:
[1] = target: Methionine--tRNA ligase (Escherichia coli) (UniProt P00959); experiment: Inhibitory activity against Escherichia coli Methionyl-tRNA synthetase was determined
[2] = target: Isoleucine--tRNA ligase (Escherichia coli) (UniProt P00956); experiment: Inhibitory activity against Escherichia coli Isoleucyl-tRNA synthetase was determined
[3] = target: Isoleucine--tRNA ligase (Escherichia coli) (UniProt P00956); experiment: as above; remark: listed apart in the source
[4] = target: Methionine--tRNA ligase (Escherichia coli) (UniProt P00959); experiment: Inhibitory activity against Escherichia coli Methionyl-tRNA synthetase was determined; remark: listed apart in the source

Chain of Isoleucine--tRNA ligase (Escherichia coli) (P00956 whole entry, looked up): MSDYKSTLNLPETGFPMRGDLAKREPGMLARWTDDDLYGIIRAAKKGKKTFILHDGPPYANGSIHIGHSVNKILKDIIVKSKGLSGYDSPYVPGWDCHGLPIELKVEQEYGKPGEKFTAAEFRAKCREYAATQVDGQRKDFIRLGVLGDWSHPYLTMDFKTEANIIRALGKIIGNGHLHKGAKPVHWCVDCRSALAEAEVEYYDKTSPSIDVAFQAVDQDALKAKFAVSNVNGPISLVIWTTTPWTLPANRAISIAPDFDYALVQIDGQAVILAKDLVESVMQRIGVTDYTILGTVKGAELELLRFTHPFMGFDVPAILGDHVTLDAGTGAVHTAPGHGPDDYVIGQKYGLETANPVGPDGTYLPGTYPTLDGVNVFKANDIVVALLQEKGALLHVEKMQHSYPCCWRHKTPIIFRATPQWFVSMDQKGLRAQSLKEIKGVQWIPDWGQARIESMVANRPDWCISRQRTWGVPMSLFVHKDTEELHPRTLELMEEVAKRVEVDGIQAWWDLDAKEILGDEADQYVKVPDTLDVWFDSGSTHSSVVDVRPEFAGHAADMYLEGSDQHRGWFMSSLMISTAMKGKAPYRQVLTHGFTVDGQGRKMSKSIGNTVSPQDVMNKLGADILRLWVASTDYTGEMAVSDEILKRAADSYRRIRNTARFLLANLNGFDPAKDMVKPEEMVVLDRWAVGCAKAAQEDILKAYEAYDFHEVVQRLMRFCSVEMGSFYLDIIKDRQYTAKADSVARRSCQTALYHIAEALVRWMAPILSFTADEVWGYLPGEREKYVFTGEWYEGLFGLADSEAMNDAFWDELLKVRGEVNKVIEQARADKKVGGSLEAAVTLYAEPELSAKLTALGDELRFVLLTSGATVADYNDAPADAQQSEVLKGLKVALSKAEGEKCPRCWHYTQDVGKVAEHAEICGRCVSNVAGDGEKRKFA
Chain of Methionine--tRNA ligase (Escherichia coli) (P00959 whole entry, looked up): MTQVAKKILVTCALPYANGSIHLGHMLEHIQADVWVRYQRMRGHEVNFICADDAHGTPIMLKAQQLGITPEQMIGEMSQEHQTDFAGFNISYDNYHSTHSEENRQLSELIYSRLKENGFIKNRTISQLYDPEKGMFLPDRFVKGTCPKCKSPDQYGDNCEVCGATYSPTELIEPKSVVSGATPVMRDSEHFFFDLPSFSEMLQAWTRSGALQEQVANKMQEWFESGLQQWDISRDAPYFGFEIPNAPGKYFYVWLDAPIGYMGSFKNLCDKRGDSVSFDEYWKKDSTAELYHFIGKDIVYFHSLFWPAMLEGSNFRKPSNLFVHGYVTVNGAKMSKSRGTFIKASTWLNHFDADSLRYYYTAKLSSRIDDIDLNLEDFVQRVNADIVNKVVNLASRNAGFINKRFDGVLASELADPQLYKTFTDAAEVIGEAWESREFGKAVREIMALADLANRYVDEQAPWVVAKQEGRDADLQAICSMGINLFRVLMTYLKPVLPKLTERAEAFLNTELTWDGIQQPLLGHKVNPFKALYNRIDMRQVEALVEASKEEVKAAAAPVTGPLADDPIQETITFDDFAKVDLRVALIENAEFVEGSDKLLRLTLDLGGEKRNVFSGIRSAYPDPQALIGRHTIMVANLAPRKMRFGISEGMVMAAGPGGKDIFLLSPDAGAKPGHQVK

Row | Compound | IC50 [3] | IC50 [4] | further results
1 | CSCC[C@H](N)C(=O)NS(=O)(=O)OC[C@H]1O[C@@H](n2cnc3c(N)ncnc32)[C@H](O)[C@@H]1O |  |  | IC50 [1]: 7 nM
2 | CC[C@H](C)[C@H](N)C(=O)NS(=O)(=O)OC[C@H]1O[C@@H](n2cnc3c(N)ncnc32)[C@H](O)[C@@H]1O |  |  | IC50 [2]: 98 nM
3 | CC[C@H](C)[C@H](N)C(=O)NS(=O)(=O)OC[C@H]1OC(n2cnc3c(NC)nc(I)nc32)[C@H](O)[C@@H]1O (stereo partly specified) | 22.2 µM |  | 
4 | C#Cc1nc(N)c2ncn(C3O[C@H](COS(=O)(=O)NC(=O)[C@@H](N)CCSC)[C@@H](O)[C@H]3O)c2n1 (stereo partly specified) |  | 1.1 µM | 
5 | C#Cc1nc(N)c2ncn(C3O[C@H](COS(=O)(=O)NC(=O)[C@@H](N)[C@@H](C)CC)[C@@H](O)[C@H]3O)c2n1 (stereo partly specified) | 0.039 µM |  | 
6 | CCCCC#Cc1nc(N)c2ncn(C3O[C@H](COS(=O)(=O)NC(=O)[C@@H](N)CCSC)[C@@H](O)[C@H]3O)c2n1 (stereo partly specified) |  | 1.9 µM | 
7 | CSCC[C@H](N)C(=O)NS(=O)(=O)N(O)C[C@H]1OC(n2cnc3c(N)ncnc32)[C@H](O)[C@@H]1O (stereo partly specified) |  | 106 µM | 
8 | CC[C@H](C)[C@H](N)C(=O)NS(=O)(=O)NOC[C@H]1OC(n2cnc3c(N)ncnc32)[C@H](O)[C@@H]1O (stereo partly specified) | 12.8 µM |  | 
9 | CSCC[C@H](N)C(=O)NS(=O)(=O)OC[C@H]1OC(n2cnc3c(N)nc(Cl)nc32)[C@H](O)[C@@H]1O (stereo partly specified) |  | 7.4 µM | 
10 | CSCC[C@H](N)C(=O)NS(=O)(=O)NOC[C@H]1OC(n2cnc3c(N)ncnc32)[C@H](O)[C@@H]1O (stereo partly specified) |  | 19.7 µM | 
11 | CSCC[C@H](N)C(=O)NS(=O)(=O)OC[C@H]1OC(n2cnc3c(N)nc(I)nc32)[C@H](O)[C@@H]1O (stereo partly specified) |  | 1.2 µM | 
12 | CC[C@H](C)[C@H](N)C(=O)NS(=O)(=O)OC[C@H]1OC(n2cnc3c(N)nc(I)nc32)[C@H](O)[C@@H]1O (stereo partly specified) | 0.014 µM |  | 
13 | CC[C@H](C)[C@H](N)C(=O)NS(=O)(=O)OC[C@H]1OC(n2cnc3c(N)nc(Cl)nc32)[C@H](O)[C@@H]1O (stereo partly specified) | 5.5 µM |  | 
14 | CC[C@H](C)[C@H](N)C(=O)NS(=O)(=O)N(O)C[C@H]1OC(n2cnc3c(N)ncnc32)[C@H](O)[C@@H]1O (stereo partly specified) | 132 µM |  | 
15 | CNc1nc(I)nc2c1ncn2C1O[C@H](COS(=O)(=O)NC(=O)[C@@H](N)CCSC)[C@@H](O)[C@H]1O (stereo partly specified) |  | 191 µM | 
16 | CCCCC#Cc1nc(N)c2ncn(C3O[C@H](COS(=O)(=O)NC(=O)[C@@H](N)[C@@H](C)CC)[C@@H](O)[C@H]3O)c2n1 (stereo partly specified) | 1.1 µM |  | 
